Target: T1, human liver glycogen phosphorylase a (HLGPa) (Homo sapiens, UniProt P06737)
T1 construct: creating a full-length cDNA fused at the 5′ end to codons for methionine-glycine-alanine-histidine; 6xHis tag (leader Met-Gly-Ala-His6-Gly-Gly) (N); made in house; host or cells: E. coli (bacterial expression plasmid pTXK1007LTev)
T1 sequence (P06737 2-847 limits assumed): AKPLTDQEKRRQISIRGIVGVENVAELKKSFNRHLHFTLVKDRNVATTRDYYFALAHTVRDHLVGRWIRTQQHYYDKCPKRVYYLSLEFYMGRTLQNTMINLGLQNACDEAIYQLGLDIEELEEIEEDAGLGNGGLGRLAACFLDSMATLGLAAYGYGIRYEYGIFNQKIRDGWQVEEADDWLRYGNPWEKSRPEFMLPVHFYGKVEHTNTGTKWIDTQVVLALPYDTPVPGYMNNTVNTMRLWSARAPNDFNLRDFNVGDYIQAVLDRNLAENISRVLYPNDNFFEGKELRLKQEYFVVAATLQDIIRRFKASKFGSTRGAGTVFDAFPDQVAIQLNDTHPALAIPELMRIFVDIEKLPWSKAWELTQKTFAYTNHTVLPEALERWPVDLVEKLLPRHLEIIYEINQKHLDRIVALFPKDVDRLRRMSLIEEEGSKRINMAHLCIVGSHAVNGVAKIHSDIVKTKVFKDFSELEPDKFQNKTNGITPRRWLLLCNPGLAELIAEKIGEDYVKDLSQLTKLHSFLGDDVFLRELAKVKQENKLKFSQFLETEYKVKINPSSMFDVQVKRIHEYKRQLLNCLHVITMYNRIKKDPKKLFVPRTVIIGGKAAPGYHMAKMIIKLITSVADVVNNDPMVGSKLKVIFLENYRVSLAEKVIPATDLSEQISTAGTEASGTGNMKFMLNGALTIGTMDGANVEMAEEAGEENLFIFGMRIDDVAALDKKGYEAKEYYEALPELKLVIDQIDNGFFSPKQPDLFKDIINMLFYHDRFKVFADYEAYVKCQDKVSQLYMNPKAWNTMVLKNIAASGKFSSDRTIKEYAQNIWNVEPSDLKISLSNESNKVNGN
Test: Human liver glycogen phosphorylase a enzymatic activity assay (coupled, fluorescent resorufin readout, with and without 10 mM glucose)
Assay type: biochemical
Details: human liver glycogen phosphorylase a; table does not say whether with or without 10 mM glucose

SMILES | IC50
O=C(Nc1cc2ccccc2cc1C(=O)N[C@H](C(=O)O)C1CCCC1)Nc1c(Cl)cc(Cl)cc1Cl [Example 343, (2S)-cyclopentyl({[3-({[(2,4,6-trichlorophenyl)amino]carbonyl}amino)-2-naphthalenyl]carbonyl}amino)ethanoic acid] | 130 nM
Cc1cc(C)c(NC(=O)Nc2cc3ccccc3cc2C(=O)N[C@H](C(=O)O)[C@H]2CCCC(O)C2)c(C)c1 (stereo partly drawn) [Example 359, (2S)-[(1S)-3-hydroxycyclohexyl]({[3-({[(2,4,6-trimethylphenyl)amino]carbonyl}amino)-2-naphthalenyl]carbonyl}amino)ethanoic acid] | 6 nM
COc1ccc(-c2ccc(C(=O)N[C@@H](CC(=O)OC(C)(C)C)C(=O)OC(C)(C)C)c(NC(=O)Nc3c(C)cc(C)cc3C)c2)cc1 [Example 361, bis(1,1-dimethylethyl) N-{[4′-(methyloxy)-3-({[(2,4,6-trimethylphenyl)amino]carbonyl}amino)-4-biphenylyl]carbonyl}-L-aspartate] | 6070 nM
COc1ccc(-c2ccc(C(=O)N[C@@H](CC(=O)O)C(=O)O)c(NC(=O)Nc3c(C)cc(C)cc3C)c2)cc1 [Example 362, N-{[4′-(methyloxy)-3-({[(2,4,6-trimethylphenyl)amino]carbonyl}amino)-4-biphenylyl]carbonyl}-L-aspartic acid] | 6 nM
CCOC(=O)C[C@H](NC(=O)c1cc2ccccc2cc1NC(=O)Nc1c(C)cc(C)cc1C)C(=O)O [Example 363, (2S)-4-(ethyloxy)-4-oxo-2-({[3-({[(2,4,6-trimethylphenyl)amino]carbonyl}amino)-2-naphthalenyl]carbonyl}amino)butanoic acid] | 360 nM
CCOC(=O)C[C@H](NC(=O)c1ccc(-c2ccc(OC)cc2)cc1NC(=O)Nc1c(C)cc(C)cc1C)C(=O)OCc1ccccc1 [Example 366, 4-ethyl 1-(phenylmethyl)N-{[4′-(methyloxy)-3-({[(2,4,6-trimethylphenyl)amino]carbonyl}amino)-4-biphenylyl]carbonyl}-L-aspartate] | 11100 nM
CCOC(=O)C[C@H](NC(=O)c1ccc(-c2ccc(OC)cc2)cc1NC(=O)Nc1c(C)cc(C)cc1C)C(=O)O [Example 367, (2S)-4-(ethyloxy)-2-({[4′-(methyloxy)-3-({[(2,4,6-trimethylphenyl)amino]carbonyl}amino)-4-biphenylyl]carbonyl}amino)-4-oxobutanoic acid] | 640 nM
CCOC(=O)C[C@H](NC(=O)c1ccc(-c2ccc(OC)cc2)cc1NC(=O)Nc1c(C)cc(Br)cc1C)C(=O)OCc1ccccc1 [Example 368, 4-ethyl 1-(phenylmethyl) N-{[3-({[(4-bromo-2,6-dimethylphenyl)amino]carbonyl}amino)-4′-(methyloxy)-4-biphenylyl]carbonyl}-L-aspartate] | 5580 nM
CCCc1cc(C)c(NC(=O)Nc2cc(-c3ccc(OC)cc3)ccc2C(=O)N[C@@H](CC(=O)OCC)C(=O)O)c(C)c1 [Example 369, (2S)-2-({[3-({[(2,6-dimethyl-4-propylphenyl)amino]carbonyl}amino)-4′-(methyloxy)-4-biphenylyl]carbonyl}amino)-4-(ethyloxy)-4-oxobutanoic acid] | 94 nM
COC(=O)[C@H](CC(=O)OC(C)(C)C)NC(=O)c1ccc(-c2ccc(OC)cc2)cc1NC(=O)Nc1c(C)cc(C)cc1C [Example 371, 4-(1,1-dimethylethyl) 1-methyl N-{[4′-(methyloxy)-3-({[(2,4,6-trimethylphenyl)amino]carbonyl}amino)-4-biphenylyl]carbonyl}-L-aspartate] | 13500 nM
COC(=O)[C@H](CC(=O)O)NC(=O)c1ccc(-c2ccc(OC)cc2)cc1NC(=O)Nc1c(C)cc(C)cc1C [Example 372, (3S)-4-(methyloxy)-3-({[4′-(methyloxy)-3-({[(2,4,6-trimethylphenyl)amino]carbonyl}amino)-4-biphenylyl]carbonyl}amino)-4-oxobutanoic acid] | 990 nM
Cc1cc(C)c(NC(=O)Nc2cc(-c3ccc(F)c(F)c3)ccc2C(=O)N[C@H](C(=O)O)[C@@H](C)OC(C)(C)C)c(C)c1 [Example 373, N-{[3′,4′-difluoro-3-({[(2,4,6-trimethylphenyl)amino]carbonyl}amino)-4-biphenylyl]carbonyl}-O-(1,1-dimethylethyl)-L-threonine] | 5 nM

The remaining lines, values ahead:

IC50 | SMILES
340 nM | Cc1cc(C)c(NC(=O)Nc2cc3ccccc3cc2C(=O)N[C@H](c2nnn[nH]2)C(C)C)c(C)c1 [Example 340, N-[(1S)-2-methyl-1-(1H-tetrazol-5-yl)propyl]-3-({[(2,4,6-trimethylphenyl)amino]carbonyl}amino)-2-naphthalenecarboxamide]
8600 nM | Cc1cc(C)c(NC(=O)Nc2cc3ccccc3cc2C(=O)N[C@H](C#N)C2CCC(F)(F)CC2)c(C)c1 [Example 342, N—[(S)-cyano(4,4-difluorocyclohexyl)methyl]-3-({[(2,4,6-trimethylphenyl)amino]carbonyl}amino)-2-naphthalenecarboxamide]
5080 nM | Cc1cc(C)c(NC(=O)Nc2cc3ccccc3cc2C(=O)N[C@@H](CC(=O)OC(C)(C)C)C(=O)OC(C)(C)C)c(C)c1 [Example 353, bis(1,1-dimethylethyl) N-{[3-({[(2,4,6-trimethylphenyl)amino]carbonyl}amino)-2-naphthalenyl]carbonyl}-L-aspartate]
61 nM | Cc1cc(C)c(NC(=O)Nc2cc3ccccc3cc2C(=O)N[C@@H](CC(=O)O)C(=O)O)c(C)c1 [Example 354, N-{[3-({[(2,4,6-trimethylphenyl)amino]carbonyl}amino)-2-naphthalenyl]carbonyl}-L-aspartic acid]
14 nM | O=C(O)C[C@H](NC(=O)c1cc2ccccc2cc1NC(=O)Nc1c(Cl)cc(OC(F)(F)F)cc1Cl)C(=O)O [Example 355, N-[(3-{[({2,6-dichloro-4-[(trifluoromethyl)oxy]phenyl}amino)carbonyl]amino}-2-naphthalenyl)carbonyl]-L-aspartic acid]
100 nM | Cc1cc(C)c(NC(=O)Nc2cc3ccccc3cc2C(=O)N[C@H](CC(=O)O)C(=O)O)c(C)c1 [Example 356, N-{[3-({[(2,4,6-trimethylphenyl)amino]carbonyl}amino)-2-naphthalenyl]carbonyl}-D-aspartic acid]
2470 nM | Cc1cc(C)c(NC(=O)Nc2cc3ccccc3cc2C(=O)N2CCC[C@@H]2C(=O)O)c(C)c1 [Example 357, 1-{[3-({[(2,4,6-trimethylphenyl)amino]carbonyl}amino)-2-naphthalenyl]carbonyl}-D-proline]
11 nM | Cc1cc(C)c(NC(=O)Nc2cc3ccccc3cc2C(=O)N[C@H](C(=O)O)[C@H]2CCCC(OC(=O)C(F)(F)F)C2)c(C)c1 (stereo partly drawn) [Example 360, (2S)-{(1S)-3-[(trifluoroacetyl)oxy]cyclohexyl}({[3-({[(2,4,6-trimethylphenyl)amino]carbonyl}amino)-2-naphthalenyl]carbonyl}amino)ethanoic acid]
1280 nM | O=C(O)C[C@H](NC(=O)c1ccc(F)cc1NC(=O)Nc1c(Cl)cccc1Cl)C(=O)O [Example 364, N-{[2-({[(2,6-dichlorophenyl)amino]carbonyl}amino)-4-fluorophenyl]carbonyl}-L-aspartic acid]
1680 nM | Cc1cc(C)c(NC(=O)Nc2cc(F)ccc2C(=O)N[C@@H](CC(=O)O)C(=O)O)c(C)c1 [Example 365, N-{[4-fluoro-2-({[(2,4,6-trimethylphenyl)amino]carbonyl}amino)phenyl]carbonyl}-L-aspartic acid]
2 nM | CCCc1cc(C)c(NC(=O)Nc2cc(-c3ccc(OC)cc3)ccc2C(=O)N[C@@H](CC(=O)O)C(=O)O)c(C)c1 [Example 370, N-{[3-({[(2,6-dimethyl-4-propylphenyl)amino]carbonyl}amino)-4′-(methyloxy)-4-biphenylyl]carbonyl}-L-aspartic acid]
820 nM | CCOC(=O)C[C@H](NC(=O)c1ccc(-c2ccc(F)c(F)c2)cc1NC(=O)Nc1c(C)cc(C)cc1C)C(=O)O [Example 374, (2S)-2-({[3′,4′-difluoro-3-({[(2,4,6-trimethylphenyl)amino]carbonyl}amino)-4-biphenylyl]carbonyl}amino)-4-(ethyloxy)-4-oxobutanoic acid]
43 nM | Cc1cc(C)c(NC(=O)Nc2cc(-c3ccc(F)c(F)c3)ccc2C(=O)N[C@@H](CC(=O)O)C(=O)O)c(C)c1 [Example 375, N-{[3′,4′-difluoro-3-({[(2,4,6-trimethylphenyl)amino]carbonyl}amino)-4-biphenylyl]carbonyl}-L-aspartic acid]
110 nM | Cc1cc(C)c(NC(=O)Nc2cc(-c3ccc(F)c(F)c3)ccc2C(=O)N[C@H](CC(=O)O)C(=O)O)c(C)c1 [Example 376, N-{[3′,4′-difluoro-3-({[(2,4,6-trimethylphenyl)amino]carbonyl}amino)-4-biphenylyl]carbonyl}-D-aspartic acid]
